This note sets out measurements from ChEMBL document CHEMBL3259703, “Synthesis and preliminary biological evaluation of 1,2,3-triazole-Jaspine B hybrids as potential cytotoxic agents” (Eur J Med Chem, 2014).

The structures appear in SMILES notation.

What all share (type): functional
Experiment [1] deals with MCF7. The experiment is described as follows: Induction of apoptosis in human MCF7 cells assessed as viable cells at 2 uM after 8 hrs using Annexin V/PI double staining by flow cytometry (reference value: 84.3 %). Particulars: MCF7, 8 h, read-out: Activity.
Experiment [2] deals with MCF7. The experiment is described as follows: Cell cycle arrest in human MCF7 cells assessed as accumulation at G0/G1 phase at 8 uM after 8 hrs using propidium iodide staining by flow cytometry (reference value: 47.36 %).
Experiment [3] has as its system MCF7. Put plainly: Cell cycle arrest in human MCF7 cells assessed as accumulation at S phase at 4 uM after 16 hrs using propidium iodide staining by flow cytometry (reference value: 30.05 %).
A short description of experiment [4]: Ratio of IC50 Jaspine B to compound IC50 for human EC9706 cells after 48 hrs by MTT assay.
In experiment [5] the test system is MCF7. The experiment is described as follows: Induction of apoptosis in human MCF7 cells assessed as viable cells at 4 uM after 8 hrs using Annexin V/PI double staining by flow cytometry (reference value: 84.3 %). The settings on record: MCF7, 8 h, read-out: Activity.
For experiment [6], the system named is MCF7. The experiment is described as follows: Induction of apoptosis in human MCF7 cells assessed as late apoptotic cells at 2 uM after 16 hrs using Annexin V/PI double staining by flow cytometry (reference value: 0.7 %).
For experiment [7], the system named is MCF7. The experiment is described as follows: Cell cycle arrest in human MCF7 cells assessed as accumulation at G0/G1 phase at 8 uM after 16 hrs using propidium iodide staining by flow cytometry (reference value: 46.01 %).
Experiment [8] deals with MCF7. The experiment is described as follows: Induction of apoptosis in human MCF7 cells assessed as viable cells at 8 uM after 16 hrs using Annexin V/PI double staining by flow cytometry (reference value: 87.5 %). Particulars: MCF7, 16 h, read-out: Activity.
Experiment [9] deals with MCF7. The experiment is described as follows: Cell cycle arrest in human MCF7 cells assessed as accumulation at G0/G1 phase at 2 uM after 16 hrs using propidium iodide staining by flow cytometry (reference value: 46.01 %).
Experiment [10] relates to MCF7. The experiment is described as follows: Induction of apoptosis in human MCF7 cells assessed as early apoptotic cells at 8 uM after 16 hrs using Annexin V/PI double staining by flow cytometry (reference value: 11.1 %).
Experiment [11] has as its system MCF7. Put plainly: Induction of apoptosis in human MCF7 cells assessed as late apoptotic cells at 8 uM after 8 hrs using Annexin V/PI double staining by flow cytometry (reference value: 6.8 %).

On to `CCCCCCCCCCCCCCCCCCn1cc(COC[C@@H]2OC[C@H](N)[C@H]2O)nn1`, for which, in [1], the viability at 2 µM amounted to 81%. Moreover, the Activity is on record as 19.11% in [2]; 17.16% in experiment [3]; 5.1% in [6]; 25.7% in [7]; 48.63% in [9]; 57.9% in [10]. Moreover, the Activity in experiment [11] came to 18.6%. The “Ratio IC50” value in [4] is recorded as 2. Also, the viability at 4 µM in experiment [5] came out at 71.5%. Moreover, the viability at 8 µM in experiment [8] was found to be 24%.
